For series [1], the system named is phosphorylation of p70S6K. Put plainly: Inhibition of p70S6K phosphorylation, α-screen assay in SH-SY5Y cell. In kind it is cell-based. As to conditions: mean ± SD (n ≥ 3).
The nature of the next series: in vitro. The settings on record: PAMPA.
For series [2] the following is noted: from PAMPA–BBB Pe. Background: In PAMPA a lipid-coated filter parts donor from acceptor wells.

On to `O=C(Nc1ncc([N+](=O)[O-])s1)c1ccccc1O` [Compound 2, tizoxanide, reference compound], for which the “Inhibition ratio of p70S6K phosphorylation at 20 μmol/L (%)” value (from here on “Inhibition ratio … (%)”) in series [1] is 43.09±2.98%.

Regarding `CC(=O)Oc1ccccc1C(=O)Nc1nccs1` [Compound 4, 2-Acetyloxy-N-(thiazol-2-yl)benzamide], in series [1], the “Inhibition ratio … (%)” value is on record as 9.98±5.16%.

`CC(=O)Oc1ccccc1C(=O)Nc1ncc(C#N)s1` [Compound 5, 2-Acetyloxy-N-(5-cyanothiazol-2-yl)benzamide]: in series [1], the “Inhibition ratio … (%)” value is 70.85±3.56%.

Regarding `COC(=O)c1cnc(NC(=O)c2ccccc2OC(C)=O)s1` [Compound 6, Methyl 2-(2-acetoxybenzamido)thiazole-5-carboxylate], the “Inhibition ratio … (%)” value in series [1] is reported as 32.72±7.87%.

For `CC(=O)Oc1ccccc1C(=O)Nc1ncc(C(=O)OCc2ccccc2)s1` [Compound 7, Benzyl 2-(2-acetoxybenzamido)thiazole-5-carboxylate], the “Inhibition ratio … (%)” value in series [1] was 18.88±5.27%.

As to `CSc1cnc(NC(=O)c2ccccc2OC(C)=O)s1` [Compound 8, 2-Acetyloxy-N-(5-(methylthio)thiazol-2-yl)benzamide], in series [1], the “Inhibition ratio … (%)” value amounted to 44.74±9.98%.

Turning to `CC(=O)Oc1ccccc1C(=O)Nc1ncc(S(C)(=O)=O)s1` [Compound 9, 2-Acetyloxy-N-(5-(methylsulfonyl)thiazol-2-yl)benzamide], the “Inhibition ratio … (%)” value in series [1] is 10.67±10.51%.

For `CC(=O)Oc1ccccc1C(=O)Nc1ncc(C(=O)O)s1` [Compound 10, 2-(2-Acetoxybenzamido)thiazole-5-carboxylic acid], in series [1], the “Inhibition ratio … (%)” value is on record as −4.51±19.40%.

Turning to `CC(=O)Oc1ccccc1C(=O)Nc1ncc(N2CCCCC2)s1` [Compound 11, 2-Acetyloxy-N-(5-(piperidin-1-yl)thiazol-2-yl)benzamide], the “Inhibition ratio … (%)” value in series [1] came out at 56.27±4.61%.

Turning to `CC(=O)Oc1ccccc1C(=O)Nc1ncc(-n2cccc2)s1` [Compound 13, 2-Acetyloxy-N-(5-(1H-pyrrol-1-yl)thiazol-2-yl)benzamide], the “Inhibition ratio … (%)” value in series [1] was 69.85±0.53%.

Turning to `CC(=O)Oc1ccccc1C(=O)Nc1ncc(N2CCNCC2)s1` [Compound 14, 2-Acetyloxy-N-(5-(piperazin-1-yl)thiazol-2-yl)benzamide], the “Inhibition ratio … (%)” value in series [1] stood at 28.21±6.44%.

As to `O=C(Nc1ncc(N2CCOCC2)s1)c1ccc(F)cc1O` [Compound 15, 4-Fluoro-2-hydroxy-N-(5-morpholinothiazol-2-yl)benzamide], the “Inhibition ratio … (%)” value in series [1] is on record as 42.25±0.19%.

Regarding `O=C(Nc1ncc(N2CCOCC2)s1)c1ccc(Cl)cc1O` [Compound 16, 4-Chloro-2-hydroxy-N-(5-morpholinothiazol-2-yl)benzamide], in series [1], the “Inhibition ratio … (%)” value is on record as 21.02±4.56%.

As to `O=C(Nc1ncc(N2CCOCC2)s1)c1ccc(Br)cc1O` [Compound 17, 4-Bromo-2-hydroxy-N-(5-morpholinothiazol-2-yl)benzamide], in series [1], the “Inhibition ratio … (%)” value worked out at 15.41±5.32%.

For the molecule `O=C(Nc1ncc(N2CCOCC2)s1)c1ccc(C(F)(F)F)cc1O` [Compound 18, 2-Hydroxy-N-(5-morpholinothiazol-2-yl)-4-(trifluoromethyl)benzamide], the “Inhibition ratio … (%)” value in series [1] came to 8.76±5.93%.

On to `O=C(Nc1ncc(N2CCOCC2)s1)c1ccccc1O` [Compound 19, 2-Hydroxy-N-(5-morpholinothiazol-2-yl)benzamide], for which the “Inhibition ratio … (%)” value in series [1] worked out at 53.79±3.85%.

As a reminder, the Papp is the rate of passage across a membrane or cell layer, normalised by area and donor concentration. In turn, `O=C(Nc1ncc(N2CCOCC2)s1)c1cccc(O)c1` [Compound 20, 3-Hydroxy-N-(5-morpholinothiazol-2-yl)benzamide] returned a Papp at 10 h, 100 μg/mL in the series “in vitro” of 0.45 ± 0.03 ×10⁻⁶ cm/s. Also, the “Inhibition ratio … (%)” value in series [1] was 83.86±1.54%. In addition, the “Prediction of BBB penetration” value in series [2] was “CNS− (Compounds with Pe < 1.13 × 10^−6 cm/s show low BBB permeation (CNS−))”.

In “in vitro”, `O=C(Nc1ncc(N2CCOCC2)s1)c1ccc(O)cc1` [Compound 21, 4-Hydroxy-N-(5-morpholinothiazol-2-yl)benzamide] gave a Papp at 10 h, 100 μg/mL of 0.09 ± 0.01 ×10⁻⁶ cm/s. Also, in series [1], the “Inhibition ratio … (%)” value came to 79.20±1.87%. Also, the “Prediction of BBB penetration” value in series [2] is on record as “CNS− (Compounds with Pe < 1.13 × 10^−6 cm/s show low BBB permeation (CNS−))”.

`CC(=O)Oc1ccc(C(=O)Nc2ncc(N3CCOCC3)s2)cc1` [Compound 23, 4-Acetyloxy-N-(5-morpholinothiazol-2-yl)benzamide] showed an apparent permeability coefficient (Papp) at 10 h, 100 μg/mL in “in vitro” of 4.92 ± 0.31 ×10⁻⁶ cm/s. Moreover, the “Inhibition ratio … (%)” value in series [1] is listed as 84.96±0.98%. For the same molecule, the “Prediction of BBB penetration” value in series [2] is recorded as “CNS+ (Compounds with permeabilities Pe > 3.08 × 10^−6 cm/s could cross the BBB by passive diffusion (CNS+))”.

For the molecule `O=C(Nc1ncc(N2CCOCC2)s1)c1ccccc1` [Compound 24, N-(5-Morpholinothiazol-2-yl)benzamide], in the series “in vitro”, the Papp at 10 h, 100 μg/mL is 12.6 ± 1.22 ×10⁻⁶ cm/s. For the same molecule, the “Inhibition ratio … (%)” value in series [1] turned out to be 77.51±1.48%. Moreover, the “Prediction of BBB penetration” value in series [2] was “CNS+ (Compounds with permeabilities Pe > 3.08 × 10^−6 cm/s could cross the BBB by passive diffusion (CNS+))”.

Turning to `O=C(Nc1ncc(N2CCOCC2)s1)c1ccccc1C(F)(F)F` [Compound 25, N-(5-Morpholinothiazol-2-yl)-2-(trifluoromethyl)benzamide], in series [1], the “Inhibition ratio … (%)” value was 22.05±1.85%.

Take `O=C(Nc1ncc(N2CCOCC2)s1)c1ccccc1F` [Compound 26, 2-Fluoro-N-(5-morpholinothiazol-2-yl)benzamide]: the “Inhibition ratio … (%)” value in series [1] stood at 65.98±1.74%.

As to `O=C(Nc1ncc(N2CCOCC2)s1)c1ccccc1[N+](=O)[O-]` [Compound 27, N-(5-Morpholinothiazol-2-yl)-2-nitrobenzamide], the “Inhibition ratio … (%)” value in series [1] is listed as 53.24±5.72%.

Consider `Cc1ccccc1C(=O)Nc1ncc(N2CCOCC2)s1` [Compound 28, 2-Methyl-N-(5-morpholinothiazol-2-yl)benzamide], for which, in series [1], the “Inhibition ratio … (%)” value is on record as 55.38±1.66%.

Turning to `COc1ccccc1C(=O)Nc1ncc(N2CCOCC2)s1` [Compound 29, 2-Methoxy-N-(5-morpholinothiazol-2-yl)benzamide], in series [1], the “Inhibition ratio … (%)” value is 26.90±6.23%.

`O=C(Nc1ncc(N2CCOCC2)s1)c1cccc2ccccc12` [Compound 30, N-(5-Morpholinothiazol-2-yl)-1-naphthamide] had a Papp at 10 h, 100 μg/mL in “in vitro” of 5.76 ± 0.55 ×10⁻⁶ cm/s. Also, the “Inhibition ratio … (%)” value in series [1] came out at 78.75±2.50%. In series [2], the “Prediction of BBB penetration” value is recorded as “CNS+ (Compounds with permeabilities Pe > 3.08 × 10^−6 cm/s could cross the BBB by passive diffusion (CNS+))”.

Molecule `O=C(Nc1ncc(N2CCOCC2)s1)c1ccc2ccccc2c1` [Compound 31, N-(5-Morpholinothiazol-2-yl)-2-naphthamide] gave an apparent permeability (Papp) at 10 h, 100 μg/mL in the series “in vitro” of 3.42 ± 0.07 ×10⁻⁶ cm/s. Further, the “Inhibition ratio … (%)” value in series [1] is 80.96±1.60%. Moreover, the “Prediction of BBB penetration” value in series [2] is listed as “CNS+ (Compounds with permeabilities Pe > 3.08 × 10^−6 cm/s could cross the BBB by passive diffusion (CNS+))”.

With `O=C(Nc1ncc(N2CCOCC2)s1)C1CC1` [Compound 39, N-(5-Morpholinothiazol-2-yl)cyclopropanecarboxamide], the “Inhibition ratio … (%)” value in series [1] is listed as 63.76±1.31%.

In the case of `O=C(Nc1ncc(N2CCOCC2)s1)C1CCC1` [Compound 40, N-(5-Morpholinothiazol-2-yl)cyclobutanecarboxamide], the “Inhibition ratio … (%)” value in series [1] is on record as 66.21±3.74%.

As to `O=C(Nc1ncc(N2CCOCC2)s1)C1CCCC1` [Compound 41, N-(5-Morpholinothiazol-2-yl)cyclopentanecarboxamide], in series [1], the “Inhibition ratio … (%)” value came to 63.37±4.65%.

For the molecule `O=C(Nc1ncc(N2CCOCC2)s1)C1CCCCC1` [Compound 42, N-(5-Morpholinothiazol-2-yl)cyclohexanecarboxamide], the “Inhibition ratio … (%)” value in series [1] amounted to 61.15±1.44%.

`O=C(Nc1ncc(N2CCOCC2)s1)C1CCCCCC1` [Compound 43, N-(5-Morpholinothiazol-2-yl)cycloheptanecarboxamide]: the “Inhibition ratio … (%)” value in series [1] is listed as 51.10±1.59%.

`CC(=O)Nc1ncc(N2CCOCC2)s1` [Compound 45, N-(5-Morpholinothiazol-2-yl)acetamide]: in series [1], the “Inhibition ratio … (%)” value worked out at 43.86±4.45%.

Regarding `CCC(=O)Nc1ncc(N2CCOCC2)s1` [Compound 46, N-(5-Morpholinothiazol-2-yl)propionamide], the “Inhibition ratio … (%)” value in series [1] stood at 44.98±8.58%.

With `CCCC(=O)Nc1ncc(N2CCOCC2)s1` [Compound 47, N-(5-Morpholinothiazol-2-yl)butyramide], the “Inhibition ratio … (%)” value in series [1] was 61.71±2.51%.

Turning to `CCCCCC(=O)Nc1ncc(N2CCOCC2)s1` [Compound 48, N-(5-Morpholinothiazol-2-yl)hexanamide], the “Inhibition ratio … (%)” value in series [1] is 61.32±5.39%.

With `CC(C)CC(=O)Nc1ncc(N2CCOCC2)s1` [Compound 49, 3-Methyl-N-(5-morpholinothiazol-2-yl)butanamide], in series [1], the “Inhibition ratio … (%)” value was determined as 40.38±3.37%.

For the molecule `O=C(CCC(F)(F)F)Nc1ncc(N2CCOCC2)s1` [Compound 50, 4,4,4-Trifluoro-N-(5-morpholinothiazol-2-yl)butanamide], the “Inhibition ratio … (%)” value in series [1] worked out at 61.35±5.44%.

Consider `O=C(Cc1ccccc1)Nc1ncc(N2CCOCC2)s1` [Compound 51, N-(5-Morpholinothiazol-2-yl)-2-phenylacetamide], for which the “Inhibition ratio … (%)” value in series [1] amounted to 47.82±3.90%.

In the case of `O=C1CCCCC1C(=O)Nc1ncc(N2CCOCC2)s1` (stereo not drawn) [Compound 53, N-(5-Morpholinothiazol-2-yl)-2-oxocyclohexanecarboxamide], the “Inhibition ratio … (%)” value in series [1] worked out at 44.94±4.00%.

For the molecule `CC(=O)CC(=O)Nc1ncc(N2CCOCC2)s1` [Compound 54, N-(5-Morpholinothiazol-2-yl)-3-oxobutanamide], the “Inhibition ratio … (%)” value in series [1] came out at 66.46±3.73%.

As for `COC[C@H]1OC(=O)c2coc3c2[C@@]1(C)C1=C(C3=O)[C@@H]2CCC(=O)[C@@]2(C)C[C@H]1OC(C)=O` [WORT, wortmannin, reference compound], the “Inhibition ratio … (%)” value in series [1] is 90.68±1.46%.

(Values after paper PMC7161708 (Acta Pharmaceutica Sinica. B, 2019).)
